Drawing on patent US8436205B2, “Tetrahydronaphthalene compounds” (Actelion Pharmaceuticals Ltd., priority 2008, dated 2013), this text covers IC50 and EC50 for ten molecules.

Assay [1] has as its system human Cav3.1 Cav3.2 or Cav3.3 channel. The assay can be described thus: In vitro assay T channel (FLIPR, Ca2+-induced calcium fluorescence). The settings on record: HEK293 cells; 10 mM Ca2+; geometric mean from n values; read-out: T channel antagonistic activity IC50. Format: cell-based. The protocol:
The T channel antagonistic activity (IC50 values) of the compounds of formula (I) is determined in accordance with the following experimental method and data are shown in Table 1.
Human embryonic kidney (HEK293) cells expressing the human Cav3.1 Cav3.2 or Cav3.3 channel, respectively, are grown in culture medium (DMEM containing 10% heat-inactivated fetal calf serum (FCS), 100 U/ml penicillin, 100 μg/ml streptomycin and 1 mg/ml G418). The cells are seeded at 20.000 cells/well into 384-well black clear bottom sterile plates (poly-L-lysine-coated, Becton Dickinson). The seeded plates are incubated overnight at 37° C. in 5% CO2. The Ca^2+ solution is prepared as 100 mM stock solution in 100 mM tetraethylammoniumchloride (TEA-chloride), 50 mM HEPES, 2.5 mM CaCl2, 5 mM KCl, 1 mM MgCl2, adjusted to pH 7.2 with TEA-hydroxide, for use in the assay at a final concentration of 10 mM. Antagonists are prepared as 10 mM stock solutions in DMSO, then diluted in 384 w plates first in DMSO, then in 100 mM TEA-chloride, 50 mM HEPES, 2.5 mM CaCl2, 5 mM KCl, 1 mM MgCl2, adjusted to pH 7.2 with TEA-hydroxide, to obtain 9× stocks. On the day of the assay, 25 μl of staining buffer (HBSS containing 20 mM HEPES, 0.375 g/l NaHCO3 and 3 μM of the fluorescent calcium indicator fluo-4 AM (1 mM stock solution in DMSO, containing 10% pluronic) is added to each well of the seeded plate. The 384-well cell-plates are incubated for 60 min at 37° C. in 5% CO2 followed by washing with 2×50 μl per well using HBSS containing 0.1% BSA, 20 mM HEPES, 0.375 g/l NaHCO3, leaving 50 […] of this buffer for equilibration at room temperature (30-60 min). Within the Fluorescent Imaging Plate Reader (FLIPR, Molecular Devices), antagonists are added to the plate in a volume of 6.25 Owen, incubated for 3 min, and finally 6.25 […] of Ca^2+ solution is added. Fluorescence is measured for each well at 2 second intervals for 8 minutes, and the area under the curve of each fluorescence peak is compared to the area of the fluorescence peak induced by 10 mM Ca^2+ with vehicle in place of antagonist. For each antagonist, the 1050 value (the concentration (in nM) of compound needed to inhibit 50% of the Ca^2+-induced fluorescence response) up to 10 μM is determined. The calculated IC50 values of the compounds may fluctuate depending on the daily cellular assay performance. Fluctuations of this kind are known to those skilled in the art.

For another assay, the system named is isolated mouse hearts. Put plainly: Effect on isolated hearts according to the Langendorff method (Lgdff). The protocol: The compounds were tested for their potential to reduce blood pressure and their effect on the contractility of the heart muscle. EC50 values on isolated mouse hearts were determined according to Literature (Doring H J., The isolated perfused heart according to Langendorff technique—function—application, Physiol. Bohemoslov. 1990, 39(6), 481-504; Kligfield P, Horner H, Brachfeld N., A model of graded ischemia in the isolated perfused rat heart, J. Appl. Physiol. 1976 June, 40(6), 1004-8).
7 example compounds have been measured using the procedure described above for the Langendorff experiment. The measured EC50 values were in the range of 7 to 29 nM with an average of 13 nM.

pEC50, pIC50: −log10 of the molar value.

As a reminder, the pIC50 is −log10 of the IC50, conventionally taken in molar units. As a reminder, the pEC50 is the negative decadic logarithm of the EC50, by convention in mol/L. For the molecule `COCC(C)(COC)CN(CCCN(C)CC[C@@]1(OC(=O)C(C)C)CCc2cc(F)ccc2[C@@H]1C(C)C)CC(F)F` [Example 6, Isobutyric acid (1S,2S)-2-[2-({3-[(2,2-difluoro-ethyl)-(3-methoxy-2-methoxymethyl-2-methyl-propyl)-amino]-propyl}-methyl-amino)-ethyl]-6-fluoro-1-isopropyl-1,2,3,4-tetrahydro-naphthalen-2-yl ester], in assay [1], the pIC50 is 5.10. The molecule further showed a pEC50 with isolated mouse hearts of 8.05.

With `COCC(C)(COC)CN(CCCN(C)CC[C@@]1(O)CCc2cc(F)ccc2[C@@H]1C(C)C)CC(F)F` [Example 5, (1S,2S)-2-[2-({3-[(2,2-Difluoro-ethyl)-(3-methoxy-2-methoxymethyl-2-methyl-propyl)-amino]-propyl}methyl-amino)-ethyl]-6-fluoro-1-isopropyl-1,2,3,4-tetrahydro-naphthalen-2-ol], the negative logarithm of the IC50 (pIC50) in assay [1] was 5.43.

`COCC(C)(COC)CN(CCF)CCCN(C)CC[C@@]1(O)CCc2cc(F)ccc2[C@@H]1C(C)C` [Example 1, (1S,2S)-6-Fluoro-2-[2-({3-[(2-fluoro-ethyl)-(3-methoxy-2-methoxymethyl-2-methyl-propyl)-amino]-propyl}-methyl-amino)-ethyl]-1-isopropyl-1,2,3,4-tetrahydro-naphthalen-2-ol]: the negative logarithm of the IC50 (pIC50) in assay [1] is 5.49.

`COCC(C)(COC)CN(CCCN(C)CC[C@@]1(OC(=O)CC(F)(F)F)CCc2cc(F)ccc2[C@@H]1C(C)C)CC(F)(F)F` [Example 10, 3,3,3-Trifluoro-propionic acid (1S,2S)-6-fluoro-1-isopropyl-2-[2-({3-[(3-methoxy-2-methoxymethyl-2-methyl-propyl)-(2,2,2-trifluoro-ethyl)-amino]-propyl}-methyl-amino)-ethyl]-1,2,3,4-tetrahydro-naphthalen-2-yl ester]: the pIC50 in assay [1] is below 5.00. Further, the pEC50 with isolated mouse hearts is 8.05.

Regarding `COCC(C)(COC)CN(CCCN(C)CC[C@@]1(OC(=O)CC(F)(F)F)CCc2cc(F)ccc2[C@@H]1C(C)C)CC(F)F` [Example 7, 3,3,3-Trifluoro-propionic acid (1S,2S)-2-[2-({3-[(2,2-difluoro-ethyl)-(3-methoxy-2-methoxymethyl-2-methyl-propyl)-amino]-propyl}-methyl-amino)-ethyl]-6-fluoro-1-isopropyl-1,2,3,4-tetrahydro-naphthalen-2-yl ester], the pIC50 in assay [1] was 5.20.

As to `COCC(C)(COC)CN(CCCN(C)CC[C@@]1(O)CCc2cc(F)ccc2[C@@H]1C(C)C)CC(F)(F)F` [Example 8, (1S,2S)-6-Fluoro-1-isopropyl-2-[2-({3-[(3-methoxy-2-methoxymethyl-2-methyl-propyl)-(2,2,2-trifluoro-ethyl)-amino]-propyl}-methyl-amino)-ethyl]-1,2,3,4-tetrahydro-naphthalen-2-ol], in assay [1], the pIC50 is 5.54.

For the molecule `COCC(C)(COC)CN(CCF)CCCN(C)CC[C@@]1(OC(=O)CF)CCc2cc(F)ccc2[C@@H]1C(C)C` [Example 4, Fluoro-acetic acid (1S,2S)-6-fluoro-2-[2-({3-[(2-fluoro-ethyl)-(3-methoxy-2-methoxymethyl-2-methyl-propyl)-amino]-propyl}-methyl-amino)-ethyl]-1-isopropyl-1,2,3,4-tetrahydro-naphthalen-2-yl ester], in assay [1], the pIC50 is 5.40.

In the case of `COCC(C)(COC)CN(CCF)CCCN(C)CC[C@@]1(OC(=O)C(C)C)CCc2cc(F)ccc2[C@@H]1C(C)C` [Example 2, Isobutyric acid (1S,2S)-6-fluoro-2-[2-({3-[(2-fluoro-ethyl)-(3-methoxy-2-methoxymethyl-2-methyl-propyl)-amino]-propyl}-methyl-amino)-ethyl]-1-isopropyl-1,2,3,4-tetrahydro-naphthalen-2-yl ester], the pIC50 in assay [1] was 5.50.

In the case of `COCC(C)(COC)CN(CCCN(C)CC[C@@]1(OC(=O)C(C)C)CCc2cc(F)ccc2[C@@H]1C(C)C)CC(F)(F)F` [Example 9, Isobutyric acid (1S,2S)-6-fluoro-1-isopropyl-2-[2-({3-[(3-methoxy-2-methoxymethyl-2-methyl-propyl)-(2,2,2-trifluoro-ethyl)-amino]-propyl}-methyl-amino)-ethyl]-1,2,3,4-tetrahydro-naphthalen-2-yl ester], in assay [1], the pIC50 was 5.77.

`COCC(C)(COC)CN(CCF)CCCN(C)CC[C@@]1(OC(=O)CC(F)(F)F)CCc2cc(F)ccc2[C@@H]1C(C)C` [Example 3, 3,3,3-Trifluoro-propionic acid (1S,2S)-6-fluoro-2-[2-({3-[(2-fluoro-ethyl)-(3-methoxy-2-methoxymethyl-2-methyl-propyl)-amino]-propyl}-methyl-amino)-ethyl]-1-isopropyl-1,2,3,4-tetrahydro-naphthalen-2-yl ester]: in assay [1], the pIC50 is 5.27. In the assay with isolated mouse hearts, the pEC50 is 8.15.
